The subject of experiment [1] is Pseudomonas aeruginosa. Nature of the experiment: Antibacterial activity against Pseudomonas aeruginosa at 100 ug/ml after 24 hr by agar streak dilution method. The experiment is classed as functional, organism-based.
Experiment [2] concerns Shigella flexneri. Briefly: Antibacterial activity against Shigella flexneri after 24 hr by agar streak dilution method. It is filed as functional.
For experiment [3], the system named is Salmonella typhi. Briefly: Antibacterial activity against Salmonella enterica subsp. enterica serovar Typhi after 24 hr by agar streak dilution method. It is filed as functional.
The test system of experiment [4] is Klebsiella pneumoniae. Briefly: Antibacterial activity against Klebsiella pneumoniae after 24 hr by agar streak dilution method. The experiment is classed as functional.
Experiment [5] relates to Aspergillus clavatus. Briefly: Antifungal activity against Aspergillus clavatus at 100 ug/disc after 48 hr by paper disk diffusion method. To be noted: read-out: IZ. The experiment is classed as functional. Background: Agar diffusion results depend on both activity and mobility in agar.
Experiment [6] concerns Aspergillus fumigatus. Briefly: Antifungal activity against Aspergillus fumigatus at 100 ug/disc after 48 hr by paper disk diffusion method. The experiment is classed as functional. To be noted: read-out: IZ.
Experiment [7] has as its system Aspergillus niger. Nature of the experiment: Antifungal activity against Aspergillus niger at 100 ug/disk after 48 hr by paper disk diffusion method. It is filed as functional. To be noted: read-out: IZ.
For another experiment, the system named is Proteus vulgaris. Briefly: Antibacterial activity against Proteus vulgaris at 100 ug/ml after 24 hr by agar streak dilution method. The experiment is classed as functional, organism-based.
The test system of a further experiment is Candida albicans. Nature of the experiment: Antifungal activity against Candida albicans at 100 ug/ml after 48 hr by agar streak dilution method. It is filed as functional, organism-based.
The subject of experiment [8] is Aspergillus clavatus. Nature of the experiment: Antifungal activity against Aspergillus clavatus after 48 hr by agar streak dilution method. The experiment is classed as functional.
The subject of experiment [9] is Aspergillus niger. Briefly: Antifungal activity against Aspergillus niger after 48 hr by agar streak dilution method. It is filed as functional.
Experiment [10] concerns Escherichia coli. Nature of the experiment: Antibacterial activity against Escherichia coli after 24 hr by agar streak dilution method. It is filed as functional.
Experiment [11] has as its system Shigella flexneri. Briefly: Antibacterial activity against Shigella flexneri at 100 ug/disc after 24 hr by paper disk diffusion method. It is filed as functional. To be noted: read-out: IZ.
In experiment [12] the test system is Salmonella typhi. Nature of the experiment: Antibacterial activity against Salmonella enterica subsp. enterica serovar Typhi at 100 ug/disk after 24 hr by paper disk diffusion method. It is filed as functional. To be noted: read-out: IZ.
Experiment [13] concerns Klebsiella pneumoniae. Nature of the experiment: Antibacterial activity against Klebsiella pneumoniae at 100 ug/disk after 24 hr by paper disk diffusion method. To be noted: read-out: IZ. The experiment is classed as functional.
In experiment [14] the test system is Escherichia coli. Nature of the experiment: Antibacterial activity against Escherichia coli at 100 ug/disk after 24 hr by paper disk diffusion method. To be noted: read-out: IZ. It is filed as functional.
Experiment [15] has as its system Bacillus subtilis. Nature of the experiment: Antibacterial activity against Bacillus subtilis after 24 hr by agar streak dilution method. It is filed as functional.
The test system of experiment [16] is Staphylococcus aureus. Nature of the experiment: Antibacterial activity against Staphylococcus aureus after 24 hr by agar streak dilution method. The experiment is classed as functional.
Experiment [17] concerns Bacillus subtilis. Nature of the experiment: Antibacterial activity against Bacillus subtilis at 100 ug/disk after 24 hr by paper disk diffusion method. It is filed as functional. To be noted: read-out: IZ.
Experiment [18] relates to Staphylococcus aureus. Nature of the experiment: Antibacterial activity against Staphylococcus aureus at 100 ug/disc after 24 hr by paper disk diffusion method. It is filed as functional. To be noted: read-out: IZ.
The test system of experiment [19] is Aspergillus fumigatus. Briefly: Antifungal activity against Aspergillus fumigatus after 48 hr by agar streak dilution method. It is filed as functional.
The test system of experiment [20] is Salmonella typhi. Nature of the experiment: Antibacterial activity against Salmonella enterica subsp. enterica serovar Typhi at 100 ug/ml after 24 hr by agar streak dilution method. The experiment is classed as functional, organism-based.
The subject of experiment [21] is Escherichia coli. Briefly: Antibacterial activity against Escherichia coli at 100 ug/ml after 24 hr by agar streak dilution method. The experiment is classed as functional, organism-based.
Experiment [22] has as its system Pseudomonas aeruginosa. Nature of the experiment: Antibacterial activity against Pseudomonas aeruginosa after 24 hr by agar streak dilution method. It is filed as functional.
Experiment [23] deals with Pseudomonas aeruginosa. Briefly: Antibacterial activity against Pseudomonas aeruginosa at 100 ug/disk after 24 hr by paper disk diffusion method. The experiment is classed as functional. To be noted: read-out: IZ.
Experiment [24] deals with Klebsiella pneumoniae. Nature of the experiment: Antibacterial activity against Klebsiella pneumoniae at 100 ug/ml after 24 hr by agar streak dilution method. It is filed as functional, organism-based.
Experiment [25] concerns Shigella flexneri. Nature of the experiment: Antibacterial activity against Shigella flexneri at 100 ug/ml after 24 hr by agar streak dilution method. It is filed as functional, organism-based.
The subject of experiment [26] is Aspergillus fumigatus. Nature of the experiment: Antifungal activity against Aspergillus fumigatus at 100 ug/ml after 48 hr by agar streak dilution method. It is filed as functional, organism-based.

≈ marks a conversion by molar mass, not a printed value. Calls of active or inactive are those of the source. The calls are words filed in the database; no cut-off is given here. Where only a bound is given, the exact number is not on record here.

As a reminder, the MIC is the lowest concentration that inhibits growth of the organism. High values mean a less susceptible organism, low ones a more susceptible organism. On to `Cc1cc(=O)oc2cc(Oc3nc(Nc4ccc(/N=C/c5ccc([N+](=O)[O-])cc5)cc4)nc(N(C)C)n3)ccc12`, for which the result in the experiment on Pseudomonas aeruginosa [1], with Proteus vulgaris and in the experiment with Candida albicans was inactive. Besides, the MIC with Shigella flexneri [2], in the experiment with Salmonella typhi [3], in the experiment on Klebsiella pneumoniae [4], against Aspergillus clavatus [8], against Aspergillus niger [9] and against Escherichia coli [10] was 100 µg/mL (≈ 186 µM) throughout. In addition, the MIC against Bacillus subtilis [15], against Staphylococcus aureus [16] and with Aspergillus fumigatus [19] was 100 µg/mL (≈ 186 µM) throughout. Further, the zone of inhibition at 100 µg/disc in the experiment with Aspergillus clavatus [5] is 13 mm; in the experiment on Aspergillus fumigatus [6], less than 10 mm; in the experiment on Aspergillus niger [7], less than 10 mm; with Shigella flexneri [11], less than 10 mm; in the experiment with Salmonella typhi [12], 13 mm; in the experiment on Klebsiella pneumoniae [13], less than 10 mm. The zone of inhibition at 100 µg/disc in the experiment on Escherichia coli [14], in the experiment with Bacillus subtilis [17] and with Staphylococcus aureus [18] was less than 10 mm in each case.

In the case of `Cc1cc(=O)oc2cc(Oc3nc(Nc4ccc(/N=C/c5ccccc5C(=O)O)cc4)nc(N(C)C)n3)ccc12`, the outcome in the experiment with Salmonella typhi [20], in the experiment on Escherichia coli [21], in the experiment on Proteus vulgaris and in the experiment on Candida albicans was inactive. For the same compound, the MIC in the experiment with Shigella flexneri [2], against Klebsiella pneumoniae [4], in the experiment with Aspergillus clavatus [8], in the experiment with Aspergillus niger [9], against Pseudomonas aeruginosa [22] and against Bacillus subtilis [15] was 100 µg/mL (≈ 186 µM) each time. In addition, the MIC in the experiment with Staphylococcus aureus [16] and against Aspergillus fumigatus [19] was 100 µg/mL (≈ 186 µM) in each case. Also, the zone of inhibition at 100 µg/disc in the experiment on Aspergillus clavatus [5] is less than 10 mm; in the experiment with Aspergillus fumigatus [6] it was less than 10 mm; in the experiment with Aspergillus niger [7], 10 mm; with Shigella flexneri [11], 11 mm; with Klebsiella pneumoniae [13] it was less than 10 mm; in the experiment on Pseudomonas aeruginosa [23], 11 mm. The zone of inhibition at 100 µg/disc in the experiment with Bacillus subtilis [17] amounted to 11 mm; in the experiment on Staphylococcus aureus [18] it was 13 mm.

Turning to `Cc1cc(=O)oc2cc(Oc3nc(Nc4ccc(/N=C/c5ccccc5)cc4)nc(N(C)C)n3)ccc12`, the outcome in the experiment on Klebsiella pneumoniae [24], with Shigella flexneri [25], with Proteus vulgaris, with Candida albicans and with Aspergillus fumigatus [26] was inactive. In addition, the minimum inhibitory concentration (MIC) in the experiment with Salmonella typhi [3], in the experiment with Aspergillus clavatus [8], against Aspergillus niger [9], against Pseudomonas aeruginosa [22], with Escherichia coli [10] and in the experiment with Bacillus subtilis [15] was 100 µg/mL (≈ 203 µM) throughout. It took 100 µg/mL (≈ 203 µM) to inhibit growth against Staphylococcus aureus [16] (MIC). Besides, the zone of inhibition at 100 µg/disc in the experiment on Aspergillus clavatus [5] was less than 10 mm; with Aspergillus niger [7], less than 10 mm; in the experiment on Salmonella typhi [12], less than 10 mm; in the experiment with Pseudomonas aeruginosa [23], 12 mm; in the experiment with Escherichia coli [14], less than 10 mm; in the experiment on Bacillus subtilis [17], 10 mm. The zone of inhibition at 100 µg/disc in the experiment on Staphylococcus aureus [18] amounted to 11 mm.
